Data taken from the supplement of paper PMC10307832.

Key:
Experiment in all cases: relative viability (nuclei count vs DMSO), 5 days (fraction); higher = more cells survive
Quizartinib + Pemetrexed = compound: CC(C)(C)c1cc(NC(=O)Nc2ccc(-c3cn4c(n3)sc3cc(OCCN5CCOCC5)ccc34)cc2)no1 [Quizartinib] + Nc1nc2[nH]cc(CCc3ccc(C(=O)N[C@@H](CCC(=O)O)C(=O)O)cc3)c2c(=O)[nH]1 [Pemetrexed] (partner 0.2 µM)
Procedure, shortened: (§1)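 Relative viability equals treated-well nuclei counts divided by vehicle-well nuclei counts. Counts came from 4× images of lung cancer cell lines grown in 1536-well plates for 5 days after pin-tool dosing on the day after seeding. Dosing used one drug alone or a fixed anchor-drug dose plus five library-drug doses (not always all listed) in √10 steps, and values are medians of duplicate plates.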

YM155 + Trametinib = compound: COCC[n+]1c2c(n(Cc3cnccn3)c1C)C(=O)c1ccccc1C2=O [YM155] + CC(=O)Nc1cccc(-n2c(=O)n(C3CC3)c(=O)c3c(Nc4ccc(I)cc4F)n(C)c(=O)c(C)c32)c1 [Trametinib] (partner 0.02 µM)
Procedure, shortened: as §1

YM155 + Foretinib = compound: COCC[n+]1c2c(n(Cc3cnccn3)c1C)C(=O)c1ccccc1C2=O [YM155] + COc1cc2c(Oc3ccc(NC(=O)C4(C(=O)Nc5ccc(F)cc5)CC4)cc3F)ccnc2cc1OCCCN1CCOCC1 [Foretinib] (partner 0.25 µM)
Procedure, shortened: as §1

YM155 + Pemetrexed = compound: COCC[n+]1c2c(n(Cc3cnccn3)c1C)C(=O)c1ccccc1C2=O [YM155] + Nc1nc2[nH]cc(CCc3ccc(C(=O)N[C@@H](CCC(=O)O)C(=O)O)cc3)c2c(=O)[nH]1 [Pemetrexed] (partner 0.2 µM)
Procedure, shortened: as §1

Row | Cell Line | relative viability (Quizartinib + Pemetrexed; first compound 0.001 µM) | relative viability (Quizartinib + Pemetrexed; first compound 0.003162 µM) | relative viability (Quizartinib + Pemetrexed; first compound 0.01 µM) | relative viability (Quizartinib + Pemetrexed; first compound 0.03162 µM) | relative viability (Quizartinib + Pemetrexed; first compound 0.1 µM) | relative viability (YM155 + Trametinib; first compound 0.002 µM) | relative viability (YM155 + Trametinib; first compound 0.006325 µM) | relative viability (YM155 + Trametinib; first compound 0.02 µM) | relative viability (YM155 + Trametinib; first compound 0.06325 µM) | relative viability (YM155 + Foretinib; first compound 0.002 µM) | relative viability (YM155 + Foretinib; first compound 0.006325 µM) | relative viability (YM155 + Foretinib; first compound 0.02 µM) | relative viability (YM155 + Foretinib; first compound 0.06325 µM) | relative viability (YM155 + Pemetrexed; first compound 0.002 µM) | relative viability (YM155 + Pemetrexed; first compound 0.006325 µM) | relative viability (YM155 + Pemetrexed; first compound 0.02 µM) | relative viability (YM155 + Pemetrexed; first compound 0.06325 µM)
1 | NCI-H2009 | 0.946 | 0.932 | 1.05 | 1.02 | 1.07 | 0.273 | 0.295 | 0.354 | 0.358 | 1.24 | 1.21 | 1.09 | 0.583 | 0.93 | 1.07 | 0.85 | 0.528
2 | UMC-11 | 0.676 | 0.787 | 0.864 | 0.771 | 0.818 | 0.56 | 0.745 | 0.771 | 0.739 | 0.966 | 1.1 | 1.08 | 1.12 | 0.817 | 0.823 | 0.878 | 0.802
3 | EPLC-272H | 0.255 | 0.361 | 0.4 | 0.26 | 0.305 | 0.294 | 0.27 | 0.335 | 0.302 | 0.694 | 0.71 | 0.849 | 0.735 | 0.327 | 0.309 | 0.316 | 0.319
